# Test results: patent US20230041197A1, “TREATMENT OF A DISEASE OF THE GASTROINTESTINAL TRACT WITH AN IMMUNOMODULATOR” (Progenity, Inc., priority 2018, published 2023)
# Counter-ions that a name gives are not always drawn.
# Experiments:
# [1] = test system: IL-6, GM-CSF, IL-15, IL-2, IL-12, IL-13, TNF-α, INF-γ
# [2] = Tacrolimus blood pharmacokinetics, oral vs intra-cecal ingestible device (Example 10); format: in vivo, Yorkshire-Cross farm swine
# Protocol: The primary objective of this study was to compare the tissue, plasma, rectal sample, and GI content pharmacokinetics of tacrolimus through oral versus intra-cecal ingestible device delivery in normal Yorkshire-Cross farm swine.
# No further randomization procedure was employed.
# Animals in Group 1 received an ingestible device containing 0.8 mL of vehicle solution (80% alcohol, 20% HCO-60). Animals in Group 2 received orally […] liquid formulation of tacrolimus at 4 mg/0.8 mL per animal (Prograf: 5 mg/mL). Animals in Group 3 received intra-cecally an ingestible device containing tacrolimus at 1 mg in 0.8 mL per ingestible device. Animals in Group 4 received intra-cecally an ingestible device containing tacrolimus at 2 mg in 0.8 mL per ingestible device. Animals in Group 5 received intra-cecally an ingestible device containing tacrolimus at 4 mg in 0.8 mL per ingestible device. To control for potential confounding effects of the surgery, all groups fast on Day −11 at least 24 hr before being subjected to anesthesia followed by surgical placements of a cecal port by a veterinary surgeon at Day −10. All animals were fasted for at least 12 hr prior to dosing on Day 1. Animals were dosed via either intra-cecal dosing (IC) or oral dosing (PO) at Day 1 (between 6-8 p.m.). All animals resumed feeding at approximately 4 hours after dose (11-12 p.m. after dosing).
# Approximately 200-400 mg of rectal content were collected, if available, with a fecal swab (Copan Diagnostics Nylon Flocked Dry Swabs, 502CS01). The fecal swab was pre-weighed and weighed after collection in the collection tube (Sterile Tube and Cap No Media, PFPM913S), and the sample weight was recorded. The fecal swab was broken via the breakpoint, and was stored in the collection tube, and immediately frozen at −70° C. […] Immediately following euthanasia, tissue was collected.
# Group 2 animals were administered a single oral dose of tacrolimus at 4 mg/0.8 mL (0.08-mg/kg) (in the vehicle solution) on Day 1. Plasma, rectal content sample, tissue collection, GI content collection and related procedures/storage/shipments was the same as those employed in Group 1.
# (§1) Group 3 animals were administered a single intra-cecal ingestible device containing tacrolimus at 1-mg/0.8 mL (0.02 mg/kg) (in the vehicle solution) on Day 1 by a veterinary surgeon. Plasma, rectal content sample, tissue collection, GI content collection and related procedures/storage/shipments was the same as those employed in Group 1. All samples were analyzed for tacrolimus.
# Group 4 animals were administered a single intra-cecal ingestible device of tacrolimus at 2 mg/0.8 mL (0.04 mg/kg) (in sterile vehicle solution) on Day 1 by a veterinary surgeon.
# as §1, with “Group 5” for “Group 3”, “animals are” for “animals were”, “at 4 mg/0.8” for “at 1-mg/0.8”, “mL (0.08” for “mL (0.02”, “procedures/storage/shipments were” for “procedures/storage/shipments was”
# [3] = parameters: species or system Yorkshire-Cross farm swine; details: in vivo
# From the text: Tables 32 and 33 provide the tissue and plasma ratios of the animals in Groups 2-5.
# [4] = Tacrolimus in GI tissue, luminal content and rectal content, oral vs intra-cecal device (Example 10); format: in vivo, Yorkshire-Cross farm swine
# Protocol: Animals in Group 1 (Vehicle Control) were administered a single intra-cecal ingestible device containing 0.8 mL Vehicle solution (80% alcohol, 20% castor oil (HCO-60) on Day 1. On Day −10 the animals were anesthetized, and a veterinary surgeon surgically placed an intra-cecal port in each animal. On Day 1, each animal was placed into a sling then a single intra-cecal ingestible device containing 0.8 mL vehicle solution (80% alcohol, 20% castor oil (HCO-60)) is introduced by the veterinary surgeon into the cecum via the cecal port in each animal. Following ingestible device placement, the animals were removed from the slings and placed back into their pens with water. […]
# Approximately 200-400 mg of rectal content were collected, if available, with a fecal swab (Copan Diagnostics Nylon Flocked Dry Swabs, 502CS01). The fecal swab was pre-weighed and weighed after collection in the collection tube (Sterile Tube and Cap No Media, PFPM913S), and the sample weight was recorded. […]
# For tissue necropsy, small intestine fluid and cecal fluid were collected separately from all the animals into two separate square plastic bottles, and stored at −20° C. The length and diameter of the cecum and the colon was measured from one animal in each group and recorded for reference. […] All samples were weighed, and the tissue sample weights were recorded. […]
# [5] = female, Yorkshire-Cross, pig, in vivo, 0.04 mg/kg
SMILES,GM-CSF levels in plasma or colon tissue ([1]; IC vs PO treatment groups),"IL-6 expression in plasma ([1]; PO or IC, 1 h and 3 h post-treatment)","inhibition of IL-6 expression in colon tissue ([1]; all IC treated groups and high dose PO group (45 mg/kg), FIG. 112B)","IL-6 inhibition in colon tissue ([1]; low dose PO group (15 mg/kg), by 12 h post-dose)","Cmax ([2]; PO, 0.09 mg/kg) [ng/mL]","concentration at 12 h ([2]; female, Yorkshire-Cross, pig, in vivo, 0.02 mg/kg) [ng/mL]","Tmax [2, 5] [h]","concentration at 12 h [2, 5] [ng/mL]","concentration at 12 h ([2]; female, Yorkshire-Cross, pig, in vivo, 0.09 mg/kg) [ng/mL]","mean concentration in spiral colon lumen, transverse colon lumen and distal colon lumen [3]",mean concentration in spiral colon tissue and transverse colon tissue [3],"tissue (spiral and transverse colon) and luminal content (spiral, transverse, and distal colon) concentrations ([4]; IC capsule high and moderate dose vs PO)","mean concentration in cecum tissue and proximate colon tissue ([4]; intra-cecal vs oral, FIG. 76)"
C[C@@H]1CCN(C(=O)CC#N)C[C@@H]1N(C)c1ncnc2[nH]ccc12 [tofacitinib citrate],nor was there a significant difference,inhibition,sustained through 24 h post-dose,Recovery from IL-6 inhibition,,,,,,,,,
C=CC[C@@H]1/C=C(\C)C[C@H](C)C[C@H](OC)[C@H]2O[C@@](O)(C(=O)C(=O)N3CCCC[C@H]3C(=O)O[C@H](/C(C)=C/[C@@H]3CC[C@@H](O)[C@H](OC)C3)[C@H](C)[C@@H](O)CC1=O)[C@H](C)C[C@@H]2OC [tacrolimus],,,,,3.531 ± 3.84,0.746 ± 0.038,1,1.96 ± 0.491,4.35 ± 0.516,statistically higher,statistically higher,Significantly higher,higher
